*1 amine or outer side, *2 acyl side, *3 side chain or, on linkers, in order; H or OH if unused. Where a SMILES comes first, the peptide text is derived from it. Bridges are numbered along the chain shown (N, C = ends). Roman numbers before positions name the chains, in order. [ ]: non-standard residue; d: D form. X1 = O=C(CCCCC(=O)[*:2])NCCCOCCOCCOCCCNC(=O)CCC(=O)[*:1]; NMeF = CN[C@@H](Cc1ccccc1)C(=O)O; NMeL = CN[C@@H](CC(C)C)C(=O)O; NMeV = CN[C@H](C(=O)O)C(C)C
Tests used:
[1] = tested on: Sprague-Dawley rats; assay: Sub-chronic toxicity, hematological and biochemical parameters; type: in vivo; settings: for Basophil / Total Bilirubin / Creatinine / Eosinophil / Monocyte / RBC / WBC / Serum Urea / SGPT / Lymphocyte / SGOT / Neutrophil / Glucose / ALP: iv, 42 days, n = 8; for Basophil: control 0.00±0.00; for Total Bilirubin: control 0.58±0.04; for Creatinine: control 0.73±0.02; for Eosinophil: control 3.12±0.61; for Monocyte: control 3.20±0.99; for RBC: control 4.77±1.54; for WBC: control 6.60±1.20; for Serum Urea: control 26±1.45; for SGPT: control 38.0±1.70; for Lymphocyte: control 38.2±3.25; for SGOT: control 52.0±2.21; for Neutrophil: control 56.6±2.31; for Glucose: control 103.0±1.34; for ALP: control 111.0±3.46
Experimental: (§1) The tabulated biochemical profile (novel biomarkers of the liver and kidney) corroborates the safety charms of SP1 for further in vivo studies.
(§2) 24 male Sprague Dawley rats were randomly divided into three groups: control, SP1A, and SP1B. Each group contains 8 animals and administration of SP1was performed for 42 days through a tail vein by the following schedule: Control: Without any treatment.
(§3) Rats were sacrificed after 42 days of injection schedule and blood was collected for hematological and biochemical estimations. For the histopathological study, the liver and kidney were also isolated very carefully and checked for cytoarchitectural changes if any.
(§4) The body weights and volumes of SP1 to be administered were recorded for each animal. Prior to injection, the tail of the animal was warmed by using warm water circulating pad placed under the cage for 5-10 minutes to dilate the veins. A 25-gauge needle was inserted into the vein towards the direction of the head. The needle and syringe were kept parallel to the tail. […]
µg/kg and 500 µg/kg) was injected into the tail slowly. The needle was removed very carefully and gentle compression applied until bleeding was stopped. Animals were returned to their home cage.
The biochemical parameters including blood glucose, serum urea, creatinine, total bilirubin, serum glutamic oxaloacetic transaminase (SGOT), serum glutamic pyruvic transaminase (SGPT), and alkaline phosphatase (ALP) were analyzed for sub-chronic toxicity of SP1by using commercially available diagnostic test kits (Crest Biosystems kits, India). Blood parameters like red blood cells, white blood cells, hemoglobin, neutrophil, lymphocyte, eosinophil, monocyte, and basophil were estimated using standard kits by following the manufacturer’s manual.

[2] = tested on: SH-SY5Y cells; assay: MTT assay, self-toxicity of SP1; type: cell-based, human; settings: 0.5-10 μM, 24 h
Experimental: (§5) 1.3. Methods for in vitro cell-based experiments
(§6) The human neuroblastoma cell line SH-SY5Y was obtained from the National Centre for Cell Science (NCCS, Pune, India). The cells were grown in DMEM, and Ham’s F12 nutrient mixture (DMEM/F12; 1:1) supplemented with 10% fetal bovine serum (FBS; Gibco, USA), 50 U/ml penicillin, 100 μg/ml streptomycin and incubated in a humidified atmosphere of 5% CO2 at 37°C. All experiments were carried […]
(§7) Each experiment was performed
(§8) Methylthiazol tetrazolium (MTT) reduction assay was used to measure the viability of cells.10 The SH-SY5Y cells were seeded at a density of 1.5 × 10^4 cells/well in a 96 well plate. To assess self-toxicity, cells […]
(§9) period 20µl of MTT reagent (5mg/ml in DPBS) was added to each well and incubated in a humidified atmosphere of 5% CO2 at 37°C for 4h. Formazan crystals (purple) are formed by the metabolically active cells by cleaving the yellow tetrazolium salt. After the incubation period, the MTT solution was aspirated, and 150µL of dimethyl sulfoxide (DMSO) was added to each well to dissolve the formazan precipitate.

[3] = tested on: Sprague-Dawley rats; assay: Acute and sub-chronic toxicity, mortality, behaviour and body weight; type: in vivo
Experimental: as §2, §3, §4
µg/kg and 500 µg/kg) was injected into the tail slowly. The needle was removed very carefully and gentle compression applied until bleeding was stopped. Animals were returned to their home cage. […]

[4] = tested on: liver and kidney tissue; assay: Sub-chronic toxicity, histopathology of liver and kidney; type: in vivo, Sprague-Dawley rats; settings: 100 and 500 μg kg−1, tail vein, once daily, 42 days, n = 8/group
Experimental: as §1, §2, §3, §4
The biochemical parameters including blood glucose, serum urea, creatinine, total bilirubin, serum glutamic oxaloacetic transaminase (SGOT), serum glutamic pyruvic transaminase (SGPT), and alkaline phosphatase (ALP) were analyzed for sub-chronic toxicity of SP1by using commercially available diagnostic test kits (Crest Biosystems kits, India). […]

[5] = tested on: SH-SY5Y cells; assay: Hoechst 33258 staining of apoptotic cells; type: cell-based, human; settings: Aβ40 10 μM, 24 h
From the text: Condensed or fragmented nuclear bodies characterize the distinctive nature of apoptotic cells. […] Dyshomeostasis of Ca^2+ is also responsible for the increased production of Aβ peptides, by which a degenerative feed-forward cycle is activated, resulting in accelerated apoptosis, synaptic dysfunction, and memory impairment.[49]

[6] = tested on: SH-SY5Y cells; assay: MTT assay, Aβ40 induced cytotoxicity; type: cell-based, human; settings: Aβ40 10 μM, 24 h
Experimental: as §5, §6, §7, §8, §9

[7] = SP1 500 µg/kg, *P<0.01 vs control

Compound: CC(C)C[C@H](NC(=O)CNC(=O)CCC(=O)NCCCOCCOCCOCCCNC(=O)CCCCC(=O)NCC(=O)N(C)[C@@H](CC(C)C)C(=O)N[C@H](C(=O)N(C)[C@@H](Cc1ccccc1)C(=O)N[C@@H](Cc1ccccc1)C(=O)N[C@@H](C)C(N)=O)C(C)C)C(=O)N(C)[C@H](C(=O)N[C@@H](Cc1ccccc1)C(=O)N(C)[C@@H](Cc1ccccc1)C(=O)N[C@@H](C)C(N)=O)C(C)C [SP1] (I: GL[NMeV]F[NMeF]A-NH2 / II: G[NMeL]V[NMeF]FA-NH2; linker I:N-II:N via X1)
- hematological and biochemical parameters, summary ([1]; 100 μg kg−1, 42 days): did not find any severe changes in the hematological and biochemical parameters
- hematological and biochemical parameters, summary ([1]; 500 μg kg−1, 42 days): Almost similar observations in rats treated with SP1 (500 μg kg^−1) were revealed, except for monocyte and SGOT levels
- Basophil ([1]; SP1 100 µg/kg): 0.00±0.00%
- Total Bilirubin ([1]; SP1 100 µg/kg): 0.54 ± 0.09 mg/dL
- Creatinine ([1]; SP1 100 µg/kg): 0.69 ± 0.05 mg/dL
- Eosinophil ([1]; SP1 100 µg/kg): 2.62±0.82%
- Monocyte ([1]; SP1 100 µg/kg): 3.8±1.08%
- RBC ([1]; SP1 100 µg/kg): 5.20±1.23 10^6/mm3
- WBC ([1]; SP1 100 µg/kg): 5.80±1.34 10^3/mm3
- Serum Urea ([1]; SP1 100 µg/kg): 32.0 ± 1.83 mg/dL
- SGPT ([1]; SP1 100 µg/kg): 44.0±1.84 IU/L
- Lymphocyte ([1]; SP1 100 µg/kg): 42.3±2.92%
- SGOT ([1]; SP1 100 µg/kg): 55.0±2.94 IU/L
- Neutrophil ([1]; SP1 100 µg/kg): 58.00±2.54%
- Glucose ([1]; SP1 100 µg/kg): 110.0 ± 1.36 mg/dL
- ALP ([1]; SP1 100 µg/kg): 120.0±3.68 IU/L
- Basophil ([1]; SP1 500 µg/kg): 0.00±0.00%
- Total Bilirubin ([1]; SP1 500 µg/kg): 0.72 ± 0.06 mg/dL
- Creatinine ([1]; SP1 500 µg/kg): 0.86 ± 0.03 mg/dL
- Eosinophil ([1]; SP1 500 µg/kg): 2.72±0.53%
- Monocyte [1, 7]: 5.20±1.24%
- RBC ([1]; SP1 500 µg/kg): 5.51±1.38 10^6/mm3
- WBC ([1]; SP1 500 µg/kg): 6.21±1.15 10^3/mm3
- Serum Urea ([1]; SP1 500 µg/kg): 29.0 ± 1.66 mg/dL
- SGPT ([1]; SP1 500 µg/kg): 40.32±1.63 IU/L
- Lymphocyte ([1]; SP1 500 µg/kg): 40.5±3.12%
- SGOT [1, 7]: 64.2±2.56 IU/L
- Neutrophil ([1]; SP1 500 µg/kg): 62.10±2.42%
- Glucose ([1]; SP1 500 µg/kg): 105.0 ± 1.28 mg/dL
- ALP ([1]; SP1 500 µg/kg): 116.0±2.15 IU/L
- cytotoxicity of SP1 alone [2]: did not observe any discernible cytotoxicity even at the maximum concentrations (10 μM)
- mortality and behavioral patterns ([3]; 100 and 500 μg kg−1, tail vein, 42 days): causes neither mortality nor abnormal behavioral patterns in rats
- body weight ([3]; 100 and 500 μg kg−1, days 7, 21, and 42, vs control): did not observe any significant changes in the rats' body weight
- cytoarchitectural changes in liver and kidney tissue [4]: did not observe any cytoarchitectural changes in the liver and kidney tissue

Compound: Aβ40: commercially available Aβ40 peptide
- apoptotic cells, Aβ40 alone [5]: A significant number of apoptotic cells were observed
- cell population after Aβ40 alone [6]: significant reduction in the cell population

From paper PMC8179358, “An explicitly designed paratope of amyloid-β prevents neuronal apoptosis in vitro and hippocampal damage in rat brain” (Chemical Science, 2020)
